For test [1], the system named is Escherichia coli. Nature of the test: Antibacterial activity against Escherichia coli MTCC 739 at 100 ug/ml by cup-plate method. The conditions noted are these: read-out: DIZ. Format: functional.
The subject of test [2] is Escherichia coli. Nature of the test: Antibacterial activity against Escherichia coli MTCC 739 at 50 ug/ml by cup-plate method. It is filed as functional. The conditions noted are these: read-out: DIZ.
The test system of test [3] is Pseudomonas aeruginosa. The test can be described thus: Antibacterial activity against Pseudomonas aeruginosa MTCC 2453 at 300 ug/ml by cup-plate method. Format: functional. Particulars: read-out: DIZ.
Test [4] relates to Pseudomonas aeruginosa. Nature of the test: Antibacterial activity against Pseudomonas aeruginosa MTCC 2453 at 100 ug/ml by cup-plate method. It is filed as functional. The conditions noted are these: read-out: DIZ.
Test [5] deals with Pseudomonas aeruginosa. The test can be described thus: Antibacterial activity against Pseudomonas aeruginosa MTCC 2453 at 200 ug/ml by cup-plate method. Format: functional. The conditions noted are these: read-out: DIZ.
Test [6] has as its system Pseudomonas aeruginosa. Nature of the test: Antibacterial activity against Pseudomonas aeruginosa MTCC 2453 at 50 ug/ml by cup-plate method. It is filed as functional. The conditions noted are these: read-out: DIZ.
The subject of test [7] is Bacillus subtilis. Nature of the test: Antibacterial activity against Bacillus subtilis MTCC 121 at 300 ug/ml by cup plate method. It is filed as functional. Particulars: read-out: DIZ.
For test [8], the system named is Bacillus subtilis. Nature of the test: Antibacterial activity against Bacillus subtilis MTCC 121 at 200 ug/ml by cup plate method. Format: functional. The conditions noted are these: read-out: DIZ.
In test [9] the test system is Bacillus subtilis. Nature of the test: Antibacterial activity against Bacillus subtilis MTCC 121 at 50 ug/ml by cup plate method. Particulars: read-out: DIZ. It is filed as functional.
Test [10] concerns Bacillus subtilis. Nature of the test: Antibacterial activity against Bacillus subtilis MTCC 121 at 100 ug/ml by cup plate method. It is filed as functional. Particulars: read-out: DIZ.
Test [11] has as its system Staphylococcus aureus. Nature of the test: Antibacterial activity against Staphylococcus aureus MTCC 96 at 300 ug/ml by cup-plate method. Format: functional. The conditions noted are these: read-out: DIZ.
Test [12] concerns Staphylococcus aureus. The test can be described thus: Antibacterial activity against Staphylococcus aureus MTCC 96 at 200 ug/ml by cup-plate method. It is filed as functional. Particulars: read-out: DIZ.
The test system of test [13] is Staphylococcus aureus. Nature of the test: Antibacterial activity against Staphylococcus aureus MTCC 96 at 100 ug/ml by cup-plate method. It is filed as functional. Particulars: read-out: DIZ.
Test [14] concerns Staphylococcus aureus. Nature of the test: Antibacterial activity against Staphylococcus aureus MTCC 96 at 50 ug/ml by cup-plate method. Format: functional. The conditions noted are these: read-out: DIZ.
Test [15] deals with Escherichia coli. The test can be described thus: Antibacterial activity against Escherichia coli MTCC 739 by cup-plate method. It is filed as functional, organism-based.
Test [16] has as its system Pseudomonas aeruginosa. The test can be described thus: Antibacterial activity against Pseudomonas aeruginosa MTCC 2453 by cup-plate method. It is filed as functional, organism-based.
The test system of test [17] is Bacillus subtilis. The test can be described thus: Antibacterial activity against Bacillus subtilis MTCC 121 by cup plate method. Format: functional, organism-based.
Test [18] concerns Staphylococcus aureus. Nature of the test: Antibacterial activity against Staphylococcus aureus MTCC 96 by cup-plate method. It is filed as functional, organism-based.
Test [19] concerns Candida albicans. Nature of the test: Antifungal activity against Candida albicans MTCC 227 at 50 to 300 ug/ml by cup-plate method. It is filed as functional, organism-based.
Test [20] deals with Escherichia coli. The test can be described thus: Antibacterial activity against Escherichia coli MTCC 739 at 300 ug/ml by cup-plate method. It is filed as functional. Particulars: read-out: DIZ.
Test [21] concerns Escherichia coli. The test can be described thus: Antibacterial activity against Escherichia coli MTCC 739 at 200 ug/ml by cup-plate method. Format: functional. Particulars: read-out: DIZ.

Each structure is given as a SMILES string. Calls of active or inactive are those of the source. The rule behind the calls is not given here.

This note sets out measurements from ChEMBL document CHEMBL3044899, “Effect of chloro and fluoro groups on the antimicrobial activity of 2,5-disubstituted 4-thiazolidinones: a comparative study” (2012).

With `O=C1N/C(=N\c2ccc(F)c(Cl)c2)S/C1=C\c1ccccc1[N+](=O)[O-]`, the zone of inhibition at 100 µg/mL in test [1] turned out to be 9 mm; in [4], 9 mm; in test [10] it was 12 mm; in [13], 12 mm. Further, the zone of inhibition at 50 µg/mL in [2] was 8 mm; in test [6] it was 8 mm; in test [9], 10 mm; in test [14], 10 mm. In addition, the zone of inhibition at 300 µg/mL turned out to be 11 mm in test [3], 13 mm in test [7], 14 mm in [11] and 12 mm in [20]. The zone of inhibition at 200 µg/mL in [5] was 10 mm; in [8], 13 mm; in test [12], 13 mm; in test [21] it was 11 mm. Further, the Activity result in [15], in [16], in test [17] and in [18] was “Dose-dependent effect” throughout. For the same molecule, the result in test [19] was inactive.
As to `O=C1N/C(=N\c2ccc(Cl)cc2)S/C1=C\c1ccccc1`, the zone of inhibition at 100 µg/mL in test [1], in test [4], in test [10] and in test [13] was 8 mm in each case. Further, the zone of inhibition at 50 µg/mL in test [2] was 7 mm; in test [6], 8 mm; in [9], 5 mm; in test [14] it was 5 mm. Also, the zone of inhibition at 300 µg/mL came out at 11 mm in test [3], 10 mm in [7], 10 mm in [11] and 12 mm in test [20]. The zone of inhibition at 200 µg/mL in test [5] worked out at 8 mm; in test [8], 9 mm; in [12], 9 mm; in test [21], 10 mm. For the same molecule, the Activity result in [15], in [16], in test [17] and in [18] was “Dose-dependent effect” throughout. Also, in test [19], the result was inactive.
For the molecule `O=C1N/C(=N\c2cccc(Cl)c2)S/C1=C\c1ccccc1Cl`, the zone of inhibition at 100 µg/mL amounted to 7 mm in test [1], 7 mm in test [4], 8 mm in [10] and 8 mm in [13]. Moreover, the zone of inhibition at 50 µg/mL in test [2] was 7 mm; in test [6], 6 mm; in [9], 7 mm; in test [14], 7 mm. The zone of inhibition at 300 µg/mL was found to be 8 mm in [3], 9 mm in test [7], 9 mm in test [11] and 8 mm in [20]. For the same molecule, the zone of inhibition at 200 µg/mL in test [5] came out at 7 mm; in test [8], 8 mm; in test [12] it was 8 mm; in [21] it was 8 mm. Also, the Activity result in test [15], in test [16], in [17] and in test [18] was “Dose-dependent effect” throughout. Also, the outcome in test [19] was inactive.
As for `O=C1N/C(=N\c2ccc(F)c(Cl)c2)S/C1=C\c1ccc(O)cc1`, the zone of inhibition at 100 µg/mL in test [1] stood at 9 mm; in [4], 9 mm; in [10] it was 10 mm; in test [13] it was 10 mm. The zone of inhibition at 50 µg/mL worked out at 8 mm in [2], 8 mm in [6], 9 mm in test [9] and 8 mm in [14]. The zone of inhibition at 300 µg/mL is 10 mm in test [3], 11 mm in test [7], 11 mm in test [11] and 10 mm in test [20]. For the same molecule, the zone of inhibition at 200 µg/mL in [5], in test [8], in test [12] and in test [21] was 10 mm in each case. Moreover, the Activity result in test [15], in [16], in test [17] and in test [18] was “Dose-dependent effect” throughout. Besides, in test [19], the result was inactive.
On to `O=C1N/C(=N\c2cccc(Cl)c2)S/C1=C\c1ccccc1`, for which the zone of inhibition at 100 µg/mL in test [1], in [4], in test [10] and in [13] was 7 mm each time. The zone of inhibition at 50 µg/mL in [2] amounted to 7 mm; in [6], 6 mm; in [9], 6 mm; in test [14], 6 mm. The zone of inhibition at 300 µg/mL in test [3] was determined as 9 mm; in test [7], 7 mm; in [11], 9 mm; in [20], 8 mm. For the same molecule, the zone of inhibition at 200 µg/mL in test [5] amounted to 8 mm; in test [8], 7 mm; in [12] it was 8 mm; in test [21], 7 mm. The Activity result in test [15], in test [16], in test [17] and in [18] was “Dose-dependent effect” each time. The outcome in [19] was inactive.
Consider `O=C1N/C(=N\c2cccc(Cl)c2)S/C1=C\c1ccc(Cl)cc1`, for which the zone of inhibition at 100 µg/mL in [1] turned out to be 9 mm; in [4], 8 mm; in test [10] it was 8 mm; in [13], 8 mm. For the same molecule, the zone of inhibition at 50 µg/mL in test [2], in [6], in [9] and in [14] was 7 mm in each case. Also, the zone of inhibition at 300 µg/mL in [3] amounted to 8 mm; in test [7] it was 10 mm; in test [11] it was 10 mm; in test [20], 9 mm. The zone of inhibition at 200 µg/mL in test [5] was 8 mm; in test [8] it was 10 mm; in test [12], 9 mm; in test [21], 9 mm. The Activity result in [15], in test [16], in test [17] and in [18] was “Dose-dependent effect” in each case. The result in test [19] was inactive.
